Assay results taken from patent US20150086557A1, “NOVEL INTEGRIN alpha9 beta1 LIGAND AND USES THEREOF” (OSAKA UNIVERSITY, priority 2012, published 2015).

What was measured:
[1] = test system: RD cells; assay: Cell adhesion assay on coated plates (RD cells); format: cell-based, human
Experimental: A cell adhesion assay was performed as described in Sato, Y. , Uemura, T., Morimitsu, K., Sato-Nishiuchi, R., Manabe, R., Takagi, J., Yamada, M., and Sekiguchi, K. (2009) J. Biol. Chem. 284, 14524-14536. For an assay involving blocking antibodies, RD cells (human rhabdomyosarcoma cells) were preincubated with monoclonal antibodies of interest at room temperature for 15 minutes and plated on 96-well plates coated with recombinant polydom proteins or fibronectin. The cells were incubated for 30 minutes, washed, fixed with 3.7% formaldehyde, and stained with 0.5% toluidine blue.
The cells were plated on 96-well plates coated with serial diluted concentrations of full-length polydom, pol-N, pol-C or plasma fibronectin (FN) and incubated at 37° C. for 30 minutes. After washing out unattached cells, attached cells were fixed and stained with toluidine blue. The attached cells were counted under a microscope. The assay was performed in triplicate.

[2] = test system: cardiac stem cells; assay: Cell adhesion assay using GFP label-retaining cells (cardiac stem cells); format: cell-based, mouse; settings: 100 nM coating, FIG. 25
Description: (§1) Tissue stem cells are known to generally have a very prolonged, cell cycle and thus allow labeling compounds incorporated into DNA and the cell interior to remain stable for a long period of time without decay along with cell division, This nature can be advantageously used to identify and separate tissue stem cells by short-term labeling or cells with a nucleotide analog such as bromodeoxyuridine (BrdU) or a fusion protein of green fluorescent protein (hereinafter referred to as “GFP”) and a nucleoprotein, histone, followed by selection of cells retaining the label for a long period of time (label-retaining cells). In this experiment, with the use of a tetracycline-inducible expression system in combination with the ROSA26 promoter, a fusion protein of GFP and histone H2B (H2B-GFP) was expressed in the heart of a mouse for 2 weeks starting 1 week before birth, and 6 weeks later, cardiac stem cells were separated as GFP label-retaining cells from the heart.
To explore whether polydom serves as a scaffold for integrin α9β1-expressing cardiac stem cells, cardiac stem cells were separated as GFP label-retaining cells and subjected to a cell adhesion assay. A 96-well immuno plate (Nunc Maxisorp) was coated with 50 μl/well of 100 nM polydom or fibronectin at 4° C. overnight, GFP label-retaining cells were collected by FACSAria and suspended at 1×10^6 cells/ml in serum-free Iscove's Modified Dulbecco Medium (hereinafter referred to as “IMDM”). The cell suspension was plated at 100 μl/well and cultured in a 5% CO2 incubator at 37° C. for 12 hours. After three washes with PBS, the cells were fixed with 100 μl/well of 3.7% formalin for 15 minutes. Then, the cells were incubated with 0.5% toluidine blue (150 μl/well) for 10 minutes and washed with MilliQ water. After drying, the number of attached cells was counted under a microscope.

[3] = test system: HT1080 cells; assay: Cell adhesion assay on coated plates (HT1080 cells); format: cell-based, human; settings: data not shown
[4] = test system: hematopoietic stem cells; assay: Proliferation of hematopoietic stem cells on coated plates; format: cell-based, mouse
Experimental: Bone marrow cells were flushed out from the femurs and tibias of three mice of 6 to 7 weeks of age (C57BL/6J) and dissociated with a 22G needle. The cells were reacted with a biotin-labeled anti-lineage antibody for 30 minutes and subsequently with an anti-blotin antibody-conjugated magnetic beads, and lineage-positive cells were removed by automated magnetic cell sorter autoMACS (Miltenyi Biotec). After staining with PE-CD3, PE-Mac1, PE-Gr1, PE-Ter119, PE-B220, FTTC-Sca1 and APC-c-Kit, a lineage(−) Sca1(+) c-Kit (high) cell fraction was sorted out using FACSAria and used for the experiments described below.
The above-prepared cells were plated on a 48-well plate coated with a recombinant polydom protein or fibronectin. The same type of plate without coating was used as a control. The medium used was RPMI containing 10% fetal calf serum, thrombopoietin (30 ng/ml) and flt3 ligand (100 ng/ml). For the examination of cell proliferation, the cells were plated in duplicate wells for each coating at 1000 cells/well and started to be cultured, and the cell number was counted at the start of culture, and on day 2 and day 3. The remaining cells were divided into three aliquots, plated in wells for each coating, and subjected to FACS analysis on day 3 after the start of culture. For the FACS analysis, staining with an antibody cocktail containing PE-CD3, PE-Mac1, PE-Gr1, PE-Ter119, PE-B220, FITC-Sca1 and APC-c-Kit was performed and FACSCont was used.
The above-prepared cells were divided into three groups and plated on 48-well plates at 5000 cells/well. The medium used was RPMI containing 10% fetal calf serum, thrombopoietin (30 ng/ml) and flt3 ligand (100 ng/ml). For an EDDMMEVPY peptide treatment group, 2 μl of the peptide was added to each well at the final concentration of 50 μM, and for the other two groups, 2 μl of PBS was added to each well. Then, the culture was performed at […] for 2 hours. Subsequently, the cells were transferred to 48-well plates coated with a recombinant polydom protein or fibronectin. The cells cultured in the presence of the peptide were transferred to the recombinant polydom protein-coated plate, and the cells in one of the other two groups were transferred to the recombinant polydom protein-coated plate, and the cells in the remaining group were transferred to the fibronectin-coated plate. The culture was continued for 3 days and the cell numbers were counted on day 2, day 3 and […].

[5] = test system: cardiac stem cells; assay: Colony forming ability of GFP label-retaining cells (cardiac stem cells); format: cell-based, mouse; settings: 100 nM coating, 1×10^4 cells/well, 2 weeks, FIG. 26
Description: as §1
To explore whether cardiac stem cells proliferate on a polydom-coated plate, colony formation was measured, as an indicator of proliferation. A Falcon 6-well plate was coated with 800 μl/well of 100 nM polydom or fibronectin at 4° C. overnight. GFP label-retaining cells were collected by FACSAria and suspended in IMDM containing 10% fetal calf serum. […] After drying, the number of colonies was counted under a microscope.

Which results are given for “polydom: recombinant mouse SVEP1 (SEQ ID NO: 2), ECM protein, ligand for integrin α9β1”?
coating concentration attaining the maximum adhesion of RD cells ([1]; 96-well plates, 37° C. for 30 minutes, FIG. 4): 3 µg/mL; promotion of RD cell adhesion ([1]; coated 96-well plates, 37° C. for 30 minutes, FIG. 4): coating concentration-dependent manner; morphology of attached RD cells ([1]; microscopic observation, FIG. 5): exhibited spread morphology; adhesion of cardiac stem cells to coated plate ([2]; 12 hours, serum-free IMDM): a large number of the cells adhered; cell adhesion activity for cardiac stem cells compared with fibronectin [2]: equivalent or superior to fibronectin; adhesion of HT1080 cells [3]: did not adhere; proliferation of hematopoietic stem cells on coated wells ([4]; 1000 cells/well, counted to day 3, versus uncoated control, FIG. 18): remarkably inhibited from proliferating; proliferation of hematopoietic stem cells on coated plate after PBS pretreatment ([4]; 5000 cells/well, counted day 2 to day 4, FIG. 20): remarkably inhibited from proliferating; colony forming activity (colony count relative to the number of cells plated) [5]: about 0.8%
